Drawing on ChEMBL document CHEMBL4052742, “Optimization of 1H-indazol-3-amine derivatives as potent fibroblast growth factor receptor inhibitors” (Bioorg Med Chem Lett, 2017), this text covers IC50 for 16 compounds.

Experiment [1] deals with Fibroblast growth factor receptor 2 (Homo sapiens, UniProt P21802). Description: Inhibition of recombinant FGFR2 (unknown origin) using poly (Glu,Tyr)4:1 as substrate after 60 mins by ELISA based spectrophotometric analysis. (In an ELISA, binding on a coated surface is turned into a signal by an enzyme label.)
Fibroblast growth factor receptor 2, sequence (P21802 whole entry): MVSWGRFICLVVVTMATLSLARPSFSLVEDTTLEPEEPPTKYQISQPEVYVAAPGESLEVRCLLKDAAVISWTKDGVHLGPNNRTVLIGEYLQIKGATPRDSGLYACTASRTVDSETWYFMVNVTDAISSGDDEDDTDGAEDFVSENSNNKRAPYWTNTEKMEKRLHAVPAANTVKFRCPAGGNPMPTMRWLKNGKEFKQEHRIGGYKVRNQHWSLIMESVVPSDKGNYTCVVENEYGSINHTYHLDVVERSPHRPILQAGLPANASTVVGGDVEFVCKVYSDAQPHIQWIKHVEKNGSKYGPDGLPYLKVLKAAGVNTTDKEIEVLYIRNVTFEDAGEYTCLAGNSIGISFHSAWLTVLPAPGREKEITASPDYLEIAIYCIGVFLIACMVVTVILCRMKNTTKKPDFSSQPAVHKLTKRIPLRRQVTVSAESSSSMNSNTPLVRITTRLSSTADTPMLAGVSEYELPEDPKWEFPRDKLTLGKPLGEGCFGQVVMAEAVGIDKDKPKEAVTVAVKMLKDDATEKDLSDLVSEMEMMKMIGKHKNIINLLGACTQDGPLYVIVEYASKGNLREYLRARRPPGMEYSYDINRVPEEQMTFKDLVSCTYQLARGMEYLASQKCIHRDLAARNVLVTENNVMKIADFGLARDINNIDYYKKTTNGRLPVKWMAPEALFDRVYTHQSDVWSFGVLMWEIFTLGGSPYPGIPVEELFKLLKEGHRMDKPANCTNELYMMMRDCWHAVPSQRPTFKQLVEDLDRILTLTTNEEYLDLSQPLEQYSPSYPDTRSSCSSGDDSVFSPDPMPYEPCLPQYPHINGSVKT
The subject of the next experiment is SNU-16. Description: Antiproliferative activity against human SNU16 cells after 72 hrs by CCK-8 assay. The note with it: SNU-16, 72 h. On the technique in general: Tetrazolium dyes change colour on reduction, which living cells bring about.
For the next experiment, the system named is KG-1. Description: Antiproliferative activity against human KG1 cells after 72 hrs by CCK-8 assay. Particulars: KG-1, 72 h.
Experiment [2] deals with Fibroblast growth factor receptor 1 (Homo sapiens, UniProt P11362). Description: Inhibition of recombinant FGFR1 (unknown origin) using poly (Glu,Tyr)4:1 as substrate after 60 mins by ELISA based spectrophotometric analysis.
Fibroblast growth factor receptor 1, sequence (P11362 whole entry): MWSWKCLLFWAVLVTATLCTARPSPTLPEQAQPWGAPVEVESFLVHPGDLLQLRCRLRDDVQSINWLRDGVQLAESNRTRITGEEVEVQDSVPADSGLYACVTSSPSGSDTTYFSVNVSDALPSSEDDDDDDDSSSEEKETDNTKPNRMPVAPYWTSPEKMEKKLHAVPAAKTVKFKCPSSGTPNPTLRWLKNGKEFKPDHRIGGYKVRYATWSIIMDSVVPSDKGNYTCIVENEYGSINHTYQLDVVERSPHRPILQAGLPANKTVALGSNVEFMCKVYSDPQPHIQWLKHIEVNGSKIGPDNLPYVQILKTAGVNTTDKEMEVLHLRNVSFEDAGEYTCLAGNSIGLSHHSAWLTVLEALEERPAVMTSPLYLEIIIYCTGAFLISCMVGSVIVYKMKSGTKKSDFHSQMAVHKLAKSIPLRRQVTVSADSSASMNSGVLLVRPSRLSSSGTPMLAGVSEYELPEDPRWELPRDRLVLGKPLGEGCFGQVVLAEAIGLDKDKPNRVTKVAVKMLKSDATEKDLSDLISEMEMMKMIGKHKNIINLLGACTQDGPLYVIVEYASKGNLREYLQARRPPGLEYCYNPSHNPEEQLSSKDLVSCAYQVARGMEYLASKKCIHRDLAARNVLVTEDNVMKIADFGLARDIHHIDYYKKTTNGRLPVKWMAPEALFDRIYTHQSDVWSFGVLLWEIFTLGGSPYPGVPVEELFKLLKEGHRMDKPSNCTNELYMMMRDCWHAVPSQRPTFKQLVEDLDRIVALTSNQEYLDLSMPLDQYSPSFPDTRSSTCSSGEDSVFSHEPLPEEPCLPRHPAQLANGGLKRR

Broadly, the IC50 is the concentration needed to halve the response being measured. Regarding `COc1ccc(F)c(-c2ccc3c(NC(=O)c4ccc(N5CCN(C)CC5)cc4)n[nH]c3c2)c1F`, the IC50 in experiment [1] is less than 4.1 nM; in the experiment on SNU-16 it was 35.6 nM; in the experiment on KG-1, 41.5 nM.

For `COc1ccc(F)c(-c2ccc3c(NC(=O)c4ccc(N5C[C@@H](C)N[C@@H](C)C5)cc4)n[nH]c3c2)c1F`, the concentration for half-maximal inhibition (IC50) in the experiment with SNU-16 was determined as 582 nM; in the experiment with KG-1, 348 nM.

Consider `COc1cc(CCc2cc(NC(=O)c3ccc(N4C[C@@H](C)N[C@@H](C)C4)cc3)n[nH]2)cc(OC)c1` [FEXAGRATINIB], for which the values for the IC50 in the experiment on SNU-16 and in the experiment with KG-1 were 3.4 nM and 3.3 nM, respectively.

Take `COc1ccc(F)c(-c2ccc3c(NC(=O)c4ccc(N(C)CCN(C)C)cc4)n[nH]c3c2)c1F`: the IC50 with SNU-16 is 366 nM; in the experiment on KG-1, 333 nM.

With `COc1cccc(-c2ccc3c(NC(=O)c4ccc(N5CCN(C)CC5)c(F)c4)n[nH]c3c2)c1F`, the half-inhibitory concentration (IC50) in the experiment on SNU-16 and with KG-1 was greater than 1000 nM in each case.

Turning to `CCN1CCN(c2ccc(C(=O)Nc3n[nH]c4cc(-c5cccc(OC)c5F)c(F)cc34)cc2)CC1`, the IC50 in the experiment on SNU-16 was greater than 1000 nM; in the experiment with KG-1, 684 nM.

Take `COc1cccc(-c2ccc3c(NC(=O)c4ccc(N5CCN(C)CC5)cc4F)n[nH]c3c2)c1F`: the half-maximal inhibitory concentration (IC50) (in experiment [1]; with SNU-16; in experiment [2]; in the experiment on KG-1) was greater than 1000 nM throughout.

In the case of `COc1ccc(F)c(-c2ccc3c(NC(=O)c4ccc(N5CCN(C(C)=O)CC5)cc4)n[nH]c3c2)c1F`, the half-maximal inhibitory concentration (IC50) turned out to be 2.9 nM in experiment [1], 322 nM with SNU-16 and 595 nM with KG-1.

In the case of `COCCN1CCN(c2ccc(C(=O)Nc3n[nH]c4cc(-c5c(F)ccc(OC)c5F)ccc34)cc2)CC1`, the IC50 with SNU-16 amounted to 431 nM; with KG-1, 47.3 nM.

Consider `CCN1CCN(c2ccc(C(=O)Nc3n[nH]c4cc(-c5c(F)ccc(OC)c5F)ccc34)cc2)CC1`, for which the concentration for half-maximal inhibition (IC50) in the experiment on SNU-16 was 77.4 nM; in experiment [2] it was less than 4.1 nM; in the experiment on KG-1, 25.3 nM.

Regarding `CCN1CCN(c2ccc(C(=O)Nc3n[nH]c4cc(-c5cccc(OC)c5F)ccc34)cc2)CC1`, the figures for the IC50 with SNU-16 and with KG-1 were 591 nM and 284 nM, respectively.

Take `CCN1CCN(c2ccc(C(=O)Nc3n[nH]c4cc(-c5cccc(OC)c5F)ccc34)cc2C(F)(F)F)CC1`: the IC50 (in experiment [1]; in the experiment with SNU-16; in experiment [2]; in the experiment with KG-1) was greater than 1000 nM each time.

Consider `COCCN1CCN(c2ccc(C(=O)Nc3n[nH]c4cc(-c5c(F)cc(F)c(OC)c5F)ccc34)cc2)CC1`, for which the IC50 in the experiment with SNU-16 and in the experiment with KG-1 was greater than 1000 nM throughout.

With `CCN1CCN(c2ccc(C(=O)Nc3n[nH]c4cc(-c5c(F)cc(F)c(OC)c5F)ccc34)cc2)CC1`, the IC50 in the experiment with SNU-16 and with KG-1 was greater than 1000 nM throughout.

In the case of `CCN1CCN(c2ccc(C(=O)Nc3n[nH]c4cc(-c5cccc(OC)c5F)cc(F)c34)cc2)CC1`, the IC50 with SNU-16 and in the experiment with KG-1 was greater than 1000 nM throughout.

In the case of `COc1ccc(F)c(-c2ccc3c(NC(=O)c4ccc(N5CCCN(C)CC5)cc4)n[nH]c3c2)c1F`, the IC50 in the experiment with SNU-16 stood at 102 nM; in the experiment on KG-1, 51.5 nM.
